Earlier results, collected in patent US20140371717A1, “DRUG DELIVERY MEDICAL DEVICE” (Micell Technologies, Inc., priority 2011, published 2014).

Columns and labels:
FKBP12 = FKBP12 (Homo sapiens, UniProt P62942)
[1] = value in μM

FKBP12, sequence (P62942 whole entry, species assumed): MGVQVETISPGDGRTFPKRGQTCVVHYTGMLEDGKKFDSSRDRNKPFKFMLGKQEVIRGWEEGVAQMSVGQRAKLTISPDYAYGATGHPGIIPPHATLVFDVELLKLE

FKBP12 binding (FKBP12) [nM] | FKBP12 binding (nM) (FKBP12) | SMILES | Antiproliferative potency (nM) [1]
2.0 to 3.2 | – | CO[C@H]1C[C@@H]2CC[C@@H](C)[C@@](O)(O2)C(=O)C(=O)N2CCCC[C@H]2C(=O)O[C@H]([C@H](C)C[C@@H]2CC[C@H](n3cnnn3)[C@H](OC)C2)CC(=O)[C@H](C)/C=C(\C)[C@@H](O)[C@@H](OC)C(=O)[C@H](C)C[C@H](C)/C=C/C=C/C=C/1C [Zotarolimus] | –
1.8 to 2.6 | – | CO[C@H]1C[C@@H]2CC[C@@H](C)[C@@](O)(O2)C(=O)C(=O)N2CCCC[C@H]2C(=O)O[C@H]([C@H](C)C[C@@H]2CC[C@@H](OCCO)[C@H](OC)C2)CC(=O)[C@H](C)/C=C(\C)[C@@H](O)[C@@H](OC)C(=O)[C@H](C)C[C@H](C)/C=C/C=C/C=C/1C [Everolimus, 40-O-(2-Hydroxyethyl)rapamycin] | –

More lines, now with the values behind:

SMILES | FKBP12 binding (FKBP12) [nM] | FKBP12 binding (nM) (FKBP12) | Antiproliferative potency (nM) [1]
C=CC[C@@H]1/C=C(\C)C[C@H](C)C[C@H](OC)[C@H]2O[C@@](O)(C(=O)C(=O)N3CCCC[C@H]3C(=O)O[C@H](/C(C)=C/[C@@H]3CC[C@@H](O)[C@H](OC)C3)[C@H](C)[C@@H](O)CC1=O)[C@H](C)C[C@@H]2OC [Tacrolimus] | 0.2 to 0.4 | – | –
CO[C@H]1C[C@@H]2CC[C@@H](C)[C@@](O)(O2)C(=O)C(=O)N2CCCC[C@H]2C(=O)O[C@H]([C@H](C)C[C@@H]2CC[C@@H](OC(=O)C(C)(CO)CO)[C@H](OC)C2)CC(=O)[C@H](C)/C=C(\C)[C@@H](O)[C@@H](OC)C(=O)[C@H](C)C[C@H](C)/C=C/C=C/C=C/1C [Temsirolimus, 42-[3-hydroxy-2-(hydroxymethyl)-2-methylpropanoate]rapamycin] | – | about the same as Sirolimus | –
CC[C@@H]1/C=C(\C)C[C@H](C)C[C@H](OC)[C@H]2O[C@@](O)(C(=O)C(=O)N3CCCC[C@H]3C(=O)O[C@H](/C(C)=C/[C@@H]3CC[C@H](Cl)[C@H](OC)C3)[C@H](C)[C@@H](O)CC1=O)[C@H](C)C[C@@H]2OC [Pimecrolimus] | – | about 1.2 nM | about 1 μM
